In patent US20220323325A1, “COMPOSITIONS COMPRISING DISSUBSTITUTE TEREPHTHALATES AND ALSO LIGHT PROECTION FILTER SUBSTANCES, DEODORANT AND/OR ANTIPERSPIRANT ACTIVE INGREDIENTS” (Evonik Operations GmbH, priority 2019, published 2022):

Assay: Dissolution capacity of UV light protection filters
Type: physicochemical
Conditions: 22° C., percentage by weight; for dissolution capacity for BEMT (maximal soluble amount): Bis-Ethylhexyloxyphenol Methoxyphenyl Triazine in the compound as solvent; for dissolution capacity for BMDM (maximal soluble amount): Butyl Methoxydibenzoylmethane in the compound as solvent; for dissolution capacity for EHT (maximal soluble amount): Ethylhexyl Triazone in the compound as solvent
Excerpt: To test the dissolution capacity of UV light protection filters, three representative UVA or UVB light protection filters were selected representatively. These are: • Butyl Methoxydibenzoylmethane (BMDM) • Ethylhexyl Triazone (EHT) • Bis-Ethylhexyloxyphenol Methoxyphenyl Triazine (BEMT).
To determine the dissolution capacity for these three UV light protection filters, a certain amount (50 g) of one of the compounds according to the invention was initially charged in each case and temperature-controlled at 22° C. A percentage by weight of a UV light protection filter was added and stirred until this amount had fully and homogeneously dissolved. This procedure was repeated until the maximal soluble amount of the UV light protection filter had been exceeded. […] If the maximum concentration had been roughly determined in this manner, a fine determination of the concentration range was repeated around this maximum concentration using smaller weighed amounts of the UV light protection filter.

| dissolution capacity for BEMT (maximal soluble amount) | dissolution capacity for BMDM (maximal soluble amount) | dissolution capacity for EHT (maximal soluble amount) | SMILES |
| --- | --- | --- | --- |
| 23% | 23% | 18% | CCCCOC(=O)c1ccc(C(=O)OCCCC)cc1 [Di(n-)butane terephthalate] |
| 11% | 18% | 6% | CCCCCCCC(=O)OCCOc1ccccc1 [2-Phenoxyethyl octanoate, reference compound] |

| SMILES | dissolution capacity for BEMT (maximal soluble amount) | dissolution capacity for BMDM (maximal soluble amount) | dissolution capacity for EHT (maximal soluble amount) |
| --- | --- | --- | --- |
| CC(C)CCOC(=O)c1ccc(C(=O)OCCC(C)C)cc1 [Di(iso)pentyl terephthalate] | 13% | 22% | 14% |
